BigSolDB 2.1

C/C=C/C=C/C(=O)O
solubility (mole fraction)
Settings	285.15 K	289.15 K	293.15 K	298.15 K	303.15 K	308.15 K	312.65 K	318.15 K	323.15 K
in MTBE	0.0403	0.0439	0.0512	0.0577	0.0693	0.0785	0.093	0.109	0.121
in acetone	0.0476	0.0528	0.0613	0.0701	0.0871	0.0968	0.115	0.14	0.156
in acetonitrile	0.00625	0.00746	0.0098	0.0112	0.0149	0.0172	0.0196	0.0248	0.0306
in ethanol	0.0442	0.0488	0.0572	0.0643	0.0747	0.0872	0.101	0.121	0.143
in ethyl acetate	0.0266	0.0314	0.0357	0.0452	0.0542	0.0626	0.0713	0.0862	0.102
in isopropanol	0.0383	0.0444	0.053	0.0613	0.0684	0.0753	0.086	0.0965	0.103
in methanol	0.0328	0.0392	0.0457	0.0553	0.0643	0.0749	0.083	0.0934	0.106
in n-butanol	0.0619	0.0738	0.0844	0.0973	0.108	0.121	0.135	0.154	0.173
